Assay [1] deals with M.TaqI DNA methyltransferase (Thermus aquaticus, UniProt P14385). In words: Restriction protection assay after M.TaqI-directed DNA modification (agarose gel). The format is biochemical. The note with it: pUC19 DNA, Cutsmart buffer, 60° C., 1 hour; restriction enzyme TaqaI 1 hour; Ethidium bromide. On the procedure:
Adenine-N6 DNA modification by M.TaqI DNA methyltransferase: […] DNA methyltransferase targets the four-base recognition sequence 5′-TCGA-3′ and modifies the underlined adenine residue at the N6-position and was combined with (6-Azido-hex-2-yne)(5′-Deoxyadenosyl)-(L-Cysteine)sulfonium salt (see example 9 for preparation). The methyltransferase enzyme and cofactors were incubated with pUC19 DNA in “Cutsmart buffer” at 60° C. for 1 hour. To determine if protection occurred the DNA was incubated with the corresponding restriction enzyme (TaqaI) for 1 hour. Afterwards, the remaining proteins were digested with Proteinase K. The DNA samples are then placed on an agarose gel and visualized with Ethidium bromide (FIG. 1).
Adenine-N6 DNA modification by M.TaqI DNA methyltransferase: […] DNA methyltransferase targets the four-base recognition sequence 5′-TCGA-3′ and modifies the underlined adenine residue at the N6-position and was combined with Rhodamine sulfonium salt (see example 12 for preparation). The methyltransferase enzyme and cofactors were incubated with pUC19 DNA in “Cutsmart buffer” at 60° C. for 1 hour. To determine if protection occurred the DNA was incubated with the corresponding restriction enzyme (TaqaI) for 1 hour. […]

The subject of assay [2] is M.MpeI DNA methyltransferase. Description: Restriction protection assay after M.MpeI-directed DNA modification (agarose gel). The format is biochemical. The note with it: pUC19 DNA, Cutsmart buffer, 60° C., 1 hour; restriction enzyme HhaI 1 hour; Ethidium bromide. On the procedure: Cytosine DNA modification by M.MpeI DNA methyltransferase: […] DNA methyltransferase targets the two-base recognition sequence 5′-CG-3′ and modifies the underlined cytosine residue and was combined with (8-Azido-oct-2-ene)(5′-Deoxyadenosyl)-(L-Cysteine)sulfonium salt (see example 9 for preparation). The methyltransferase enzyme and cofactors were incubated with pUC19 DNA in “Cutsmart buffer” at 60° C. for 1 hour. To determine if protection occurred the DNA was incubated with the corresponding restriction enzyme (HhaI) for 1 hour. Afterwards, the remaining proteins were digested with Proteinase K. The DNA samples are then placed on an agarose gel and visualized with Ethidium bromide (FIG. 3).

Assay [3] has as its system plasmid DNA. In words: Super resolution microscopy of fluorescently labeled DNA. The note with it: FIG. 5 panel C; DNA spin coated on poly-L-lysine coated cover slips. On the procedure: Adenine-N6 DNA modification by M.TaqI DNA methyltransferase: […] DNA methyltransferase targets the four-base recognition sequence 5′-TCGA-3′ and modifies the underlined adenine residue at the N6-position and was combined with Rhodamine sulfonium salt (see example 12 for preparation). The methyltransferase enzyme and cofactors were incubated with pUC19 DNA in “Cutsmart buffer” at 60° C. for 1 hour. To determine if protection occurred the DNA was incubated with the corresponding restriction enzyme (TaqaI) for 1 hour. Afterwards, the remaining proteins were digested with Proteinase K. DNA samples are then placed on an agarose gel and visualized with Ethidium bromide (FIG. 4).
Fluorescent DNA was purified using DNA Cleaner & Concentrator 5 columns (Zymo Research), and the DNA was spin coated on poly-L-lysine coated cover slips and used directly for microscopy studies. (FIG. 5)

Where a name gives a salt, the structure may show the parent alone.

Sequence of M.TaqI DNA methyltransferase (P14385 whole entry): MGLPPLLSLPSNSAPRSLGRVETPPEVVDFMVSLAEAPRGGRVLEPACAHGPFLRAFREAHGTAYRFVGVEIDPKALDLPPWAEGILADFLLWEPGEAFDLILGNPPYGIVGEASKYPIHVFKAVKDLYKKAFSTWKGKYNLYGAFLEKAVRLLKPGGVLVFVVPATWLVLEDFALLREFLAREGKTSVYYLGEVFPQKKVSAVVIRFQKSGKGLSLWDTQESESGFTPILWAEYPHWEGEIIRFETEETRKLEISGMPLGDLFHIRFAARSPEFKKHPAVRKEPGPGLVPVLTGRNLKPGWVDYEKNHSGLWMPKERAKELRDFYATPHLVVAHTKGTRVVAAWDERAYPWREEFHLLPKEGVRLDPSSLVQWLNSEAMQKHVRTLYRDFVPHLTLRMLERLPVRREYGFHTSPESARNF

In the case of `[N-]=[N+]=NCCCC#CC[S+](C[C@H](N)C(=O)O)C[C@H]1O[C@@H](n2cnc3c(N)ncnc32)C(O)C1O` (stereo partly drawn) [(6-Azido-hex-2-yne)(5′-Deoxyadenosyl)-(L-Cysteine)sulfonium Salt], the “Protection of DNA against cutting by restriction enzyme (band pattern on agarose gel)” value in assay [1] is given as 1 strong band, corresponding to uncut DNA.

Regarding `[N-]=[N+]=NCCCCCC=CC[S+](C[C@H](N)C(=O)O)C[C@H]1O[C@@H](n2cnc3c(N)ncnc32)[C@H](O)[C@@H]1O` (stereo partly drawn) [(8-Azido-oct-2-ene)(5′-Deoxyadenosyl)-(L-Cysteine)sulfonium salt], the “Protection of DNA against cutting by restriction enzyme (band pattern on agarose gel)” value in assay [2] is given as 1 strong band, corresponding to uncut DNA.

As to `CCN(CC)c1ccc2c(-c3ccccc3C(=O)N(C)CCC(=O)NCCCCC/C=C/C[S+](C[C@H](N)C(=O)O)C[C@H]3O[C@@H](n4cnc5c(N)ncnc54)[C@@H](O)C3O)c3ccc(=[N+](CC)CC)cc-3oc2c1` (stereo partly drawn) [Rhodamine sulfonium salt], the “Colocalization of the dye with a DNA intercalating dye (fluorescent DNA labeling)” value in assay [3] is given as “successful fluorescent DNA labeling”.

Source of the values: patent publication US20170283453A1, “COFACTOR ANALOGUES FOR METHYLTRANSFERASES” (KATHOLIEKE UNIVERSITEIT LEUVEN, priority 2014, published 2017).
